# According to ChEMBL document CHEMBL1201862, “PubChem BioAssay data set” (2004):
#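 Assay format: 96-well plates, 48-hour exposure. GI50 marks 50% less growth.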 Calls of active or inactive are those of the source. Cut-off read from the data, not from the text of the source: active = GI50 up to about 1.1 µM and inactive = higher.
# Legend:
# Test in all cases: NCI anticancer screen, dose series, 48 h
# 786-0 = system: 786-0
# A498 = system: A498
# A549 = system: A549
# ACHN = system: ACHN
# CCRF-CEM = system: CCRF-CEM
# COLO 205 = system: COLO 205
# DLD-1 = system: DLD-1
# DMS-114 = system: DMS-114
# DMS-273 = system: DMS-273
# HCT-116 = system: HCT-116
# HCT-15 = system: HCT-15
# HL-60 = system: HL-60
# HOP-62 = system: HOP-62
# HOP-92 = system: HOP-92
# HT-29 = system: HT-29
# IGROV-1 = system: IGROV-1
# KM-20L2 = system: KM-20L2
# KM12 = system: KM12
# LOX IMVI = system: LOX IMVI
# LXFL 529 = system: LXFL 529
# M14 = system: M14
# M19-MEL = system: M19-MEL
# MOLT-4 = system: MOLT-4
# Malme-3M = system: Malme-3M
# NCI-H226 = system: NCI-H226
# NCI-H23 = system: NCI-H23
# NCI-H460 = system: NCI-H460
# NCI-H522 = system: NCI-H522
# OVCAR-3 = system: OVCAR-3
# OVCAR-4 = system: OVCAR-4
# OVCAR-8 = system: OVCAR-8
# RPMI-8226 = system: RPMI-8226
# SF-268 = system: SF-268
# SF-295 = system: SF-295
# SF-539 = system: SF-539
# SK-MEL-28 = system: SK-MEL-28
# SK-MEL-2 = system: SK-MEL-2
# SK-MEL-5 = system: SK-MEL-5
# SK-OV-3 = system: SK-OV-3
# SN12C = system: SN12C
# SNB-75 = system: SNB-75
# SNB-78 = system: SNB-78
# SR = system: SR
# TK-10 = system: TK-10
# U-251 = system: U-251
# UACC-257 = system: UACC-257
# UO-31 = system: UO-31
# XF498 = system: XF498
# CAKI-1 = system: CAKI-1
# EKVX = system: EKVX
# HCC 2998 = system: HCC 2998
# K562 = system: K562
# OVCAR-5 = system: OVCAR-5
# RXF 393 = system: RXF 393
# SNB-19 = system: SNB-19
# SW-620 = system: SW-620
# UACC-62 = system: UACC-62
# BT-549 = system: BT-549
# DU-145 = system: DU-145
# Hs-578T = system: Hs-578T
# MCF7 = system: MCF7
# MDA-MB-231 = system: MDA-MB-231
# MDA-MB-435 = system: MDA-MB-435
# MDA-N = system: MDA-N
# NCI/ADR-RES = system: NCI/ADR-RES
# PC-3 = system: PC-3
# T47D = system: T47D
smiles,measurement,setting,value
O=C(CSc1nc(-c2ccccc2)c(-c2ccccc2)[nH]1)N/N=C/c1ccc([N+](=O)[O-])cc1,GI50,786-0,16.8 µM (inactive)
same,GI50,A498,14 µM (inactive)
same,GI50,A549,29.6 µM (inactive)
same,GI50,ACHN,26.7 µM (inactive)
same,GI50,CCRF-CEM,21.4 µM (inactive)
same,GI50,COLO 205,16.7 µM (inactive)
same,GI50,DLD-1,18.1 µM (inactive)
same,GI50,DMS-114,18.5 µM (inactive)
same,GI50,DMS-273,14.1 µM (inactive)
same,GI50,HCT-116,18.7 µM (inactive)
same,GI50,HCT-15,14 µM
same,GI50,HL-60,34.8 µM (inactive)
same,GI50,HOP-62,17.7 µM (inactive)
same,GI50,HOP-92,13.8 µM (inactive)
same,GI50,HT-29,19.2 µM (inactive)
same,GI50,IGROV-1,17.6 µM (inactive)
same,GI50,KM-20L2,8.87 µM (inactive)
same,GI50,KM12,17.3 µM (inactive)
same,GI50,LOX IMVI,15.9 µM (inactive)
same,GI50,LXFL 529,20.4 µM (inactive)
same,GI50,M14,17.4 µM (inactive)
same,GI50,M19-MEL,17.1 µM (inactive)
same,GI50,MOLT-4,18.6 µM (inactive)
same,GI50,Malme-3M,18.4 µM (inactive)
same,GI50,NCI-H226,13.6 µM (inactive)
same,GI50,NCI-H23,14.7 µM (inactive)
same,GI50,NCI-H460,19.4 µM (inactive)
same,GI50,NCI-H522,14.5 µM (inactive)
same,GI50,OVCAR-3,15.1 µM (inactive)
same,GI50,OVCAR-4,23 µM (inactive)
same,GI50,OVCAR-8,10.3 µM (inactive)
same,GI50,RPMI-8226,16.6 µM (inactive)
same,GI50,SF-268,16.2 µM (inactive)
same,GI50,SF-295,19.8 µM (inactive)
same,GI50,SF-539,16 µM (inactive)
same,GI50,SK-MEL-28,15.6 µM (inactive)
same,GI50,SK-MEL-2,13.8 µM (inactive)
same,GI50,SK-MEL-5,17.3 µM (inactive)
same,GI50,SK-OV-3,14.5 µM (inactive)
same,GI50,SN12C,16.2 µM (inactive)
same,GI50,SNB-75,21.8 µM (inactive)
same,GI50,SNB-78,21.2 µM (inactive)
same,GI50,SR,30.9 µM (inactive)
same,GI50,TK-10,15.7 µM (inactive)
same,GI50,U-251,14.1 µM (inactive)
same,GI50,UACC-257,19 µM (inactive)
same,GI50,UO-31,14.7 µM (inactive)
same,GI50,XF498,13.2 µM (inactive)
CCOC(=O)C(N=C(c1ccccc1)c1ccccc1)N(C(=O)OC(C)(C)C)C(=O)OC(C)(C)C (centres undefined),GI50,786-0,> 100 µM (inactive)
same,GI50,A549,> 100 µM (inactive)
same,GI50,ACHN,> 100 µM (inactive)
same,GI50,CAKI-1,> 100 µM (inactive)
same,GI50,COLO 205,> 100 µM (inactive)
same,GI50,DMS-114,> 100 µM (inactive)
same,GI50,EKVX,> 100 µM (inactive)
same,GI50,HCC 2998,> 100 µM (inactive)
same,GI50,HCT-116,> 100 µM (inactive)
same,GI50,HCT-15,> 100 µM
same,GI50,HOP-92,7.45 µM (inactive)
same,GI50,HT-29,> 100 µM (inactive)
same,GI50,IGROV-1,> 100 µM (inactive)
same,GI50,K562,> 100 µM (inactive)
same,GI50,KM-20L2,> 100 µM (inactive)
same,GI50,KM12,> 100 µM (inactive)
same,GI50,LXFL 529,75.2 µM (inactive)
same,GI50,M19-MEL,> 100 µM (inactive)
same,GI50,MOLT-4,> 100 µM (inactive)
same,GI50,Malme-3M,> 100 µM (inactive)
same,GI50,NCI-H226,> 100 µM (inactive)
same,GI50,NCI-H23,> 100 µM (inactive)
same,GI50,NCI-H522,> 100 µM (inactive)
same,GI50,OVCAR-3,> 100 µM (inactive)
same,GI50,OVCAR-4,> 100 µM (inactive)
same,GI50,OVCAR-5,> 100 µM (inactive)
same,GI50,OVCAR-8,> 100 µM (inactive)
same,GI50,RPMI-8226,64.3 µM (inactive)
same,GI50,RXF 393,19.8 µM (inactive)
same,GI50,SF-268,> 100 µM (inactive)
same,GI50,SF-295,> 100 µM (inactive)
same,GI50,SF-539,> 100 µM (inactive)
same,GI50,SK-MEL-28,> 100 µM (inactive)
same,GI50,SK-MEL-2,> 100 µM (inactive)
same,GI50,SK-MEL-5,> 100 µM (inactive)
same,GI50,SK-OV-3,> 100 µM (inactive)
same,GI50,SN12C,> 100 µM (inactive)
same,GI50,SNB-19,> 100 µM (inactive)
same,GI50,SNB-75,82 µM (inactive)
same,GI50,SNB-78,> 100 µM (inactive)
same,GI50,SR,69.3 µM (inactive)
same,GI50,SW-620,> 100 µM (inactive)
same,GI50,TK-10,> 100 µM (inactive)
same,GI50,U-251,> 100 µM (inactive)
same,GI50,UACC-257,> 100 µM (inactive)
same,GI50,UACC-62,> 100 µM (inactive)
same,GI50,UO-31,> 100 µM (inactive)
CC1=C(C(=O)Nc2ccccc2)C2(CCCCC2)C(C#N)=C(SCC(=O)Nc2ccc(Br)cc2)N1,GI50,786-0,4.1 µM (inactive)
same,GI50,A498,4.56 µM (inactive)
same,GI50,A549,3.77 µM (inactive)
same,GI50,ACHN,4.45 µM (inactive)
same,GI50,BT-549,8.15 µM (inactive)
same,GI50,CAKI-1,4.76 µM (inactive)
same,GI50,CCRF-CEM,1.46 µM (inactive)
same,GI50,COLO 205,2.11 µM (inactive)
same,GI50,DU-145,7.76 µM (inactive)
same,GI50,EKVX,2.15 µM (inactive)
same,GI50,HCC 2998,2.54 µM (inactive)
same,GI50,HCT-116,2.51 µM (inactive)
same,GI50,HCT-15,4.23 µM
same,GI50,HL-60,3.18 µM (inactive)
same,GI50,HOP-62,10.1 µM (inactive)
same,GI50,HOP-92,3.11 µM (inactive)
same,GI50,HT-29,2.45 µM (inactive)
same,GI50,Hs-578T,3.57 µM (inactive)
same,GI50,IGROV-1,3.34 µM (inactive)
same,GI50,K562,3.34 µM (inactive)
same,GI50,KM12,3.2 µM (inactive)
same,GI50,LOX IMVI,3.43 µM (inactive)
same,GI50,M14,3.61 µM (inactive)
same,GI50,MCF7,4.51 µM (inactive)
same,GI50,MDA-MB-231,7.33 µM (inactive)
same,GI50,MDA-MB-435,4.47 µM (inactive)
same,GI50,MDA-N,3.41 µM (inactive)
same,GI50,MOLT-4,2.82 µM (inactive)
same,GI50,Malme-3M,1.82 µM (inactive)
same,GI50,NCI-H226,6.84 µM (inactive)
same,GI50,NCI-H23,4.1 µM (inactive)
same,GI50,NCI-H460,3.22 µM (inactive)
same,GI50,NCI-H522,2.06 µM (inactive)
same,GI50,NCI/ADR-RES,3.88 µM (inactive)
same,GI50,OVCAR-3,3.27 µM (inactive)
same,GI50,OVCAR-4,4.91 µM (inactive)
same,GI50,OVCAR-5,4.99 µM (inactive)
same,GI50,OVCAR-8,5.58 µM (inactive)
same,GI50,PC-3,2.88 µM (inactive)
same,GI50,RPMI-8226,2.08 µM (inactive)
same,GI50,RXF 393,4.54 µM (inactive)
same,GI50,SF-268,2.2 µM (inactive)
same,GI50,SF-295,4.2 µM (inactive)
same,GI50,SF-539,13.3 µM (inactive)
same,GI50,SK-MEL-28,5.73 µM (inactive)
same,GI50,SK-MEL-2,2.54 µM (inactive)
same,GI50,SK-MEL-5,3.46 µM (inactive)
same,GI50,SK-OV-3,8.79 µM (inactive)
same,GI50,SN12C,4.23 µM (inactive)
same,GI50,SNB-19,6.49 µM (inactive)
same,GI50,SNB-75,8.51 µM (inactive)
same,GI50,SR,2.31 µM (inactive)
same,GI50,SW-620,5.43 µM (inactive)
same,GI50,T47D,5.19 µM (inactive)
same,GI50,TK-10,6.58 µM (inactive)
same,GI50,U-251,4.51 µM (inactive)
same,GI50,UACC-257,7.28 µM (inactive)
same,GI50,UACC-62,6.85 µM (inactive)
same,GI50,UO-31,1.39 µM (inactive)
